Assay results from US8808751B2, “Methods for the preparation of biologically active compounds in nanoparticulate form” (Iceutica Pty Ltd., priority 2006, dated 2014).
Counter-ions that a name gives are not always drawn. One block for each molecule: values may come before it.

Legend:
[1] = Dissolution in simulated gastric fluid (USP apparatus); format: physicochemical; details: simulated gastric fluid (SGF), 60 mg in 1 L fluid, 90 minutes post addition
Procedure: (§1) The dissolution properties of the particulate raloxifene hydrochloride were tested with a USP apparatus in simulated gastric conditions, and compared with commercial raloxifene hydrochloride. About 60 mg of particulate raloxifene hydrochloride and commercial raloxifene hydrochloride, respectively, were introduced into gelatin capsules. The dissolution properties were followed as a function of solution concentration versus time.
The dissolution conditions were as follows: 1 L of 0.1 M HCl containing 2 g of NaCl were degassed and brought to 37° C. in a USP conform dissolution vessel to paddle and stirred at about 80 rpm. […] For each time point, 2 mL of sample were removed from the solution, to remove larger aggregates it was centrifuged for 1 min at 10000 g and 1.5 ml was taken from the top of the solution and the concentration was measured using a Waters HPLC running a method validated with respect to specificity, linearity, precision and repeatability.
(§2) As tested prior to administration to the dogs, the particulate raloxifene hydrochloride had the following properties: >75% of the particles were in the range of 220-350 nm in size, with >90% in the range of […]. […] At 90 minutes post addition, approximately 15 mg/L of particulate raloxifene was detected versus 8 mg/L of comparison API for SGF; and 4.5 mg/L versus 0.75 mg/L for SIF.

[2] = Dissolution in simulated intestinal fluid; format: physicochemical; details: simulated intestinal fluid (SIF), 60 mg in 1 L fluid, 90 minutes post addition
Procedure: as §1, §2

[3] = Pharmacokinetics after oral capsule administration, crossover study; format: in vivo; details: 12 beagle dogs
Procedure: This study involved the investigation of the pharmacokinetics of raloxifene hydrochloride following oral administration of two dosage formulations to 12 male and female beagle dogs. The two dosage forms investigated were 1) raloxifene hydrochloride particles, developed according to the method of the present invention, and 2) standard API. Both forms were administered as capsules prepared by the Pharmaceutics laboratory of TetraQ.
The study was designed as a crossover trial conducted in 6 male and 6 female healthy Beagle dogs. Raloxifene was administered as an oral dose with three male plus three female dogs each receiving one of the two preparations on each of two dosing occasions. Eleven plasma samples were collected from each animal in the 24 hour period following each dose and these were all available for determination of raloxifene concentration.
Plasma samples were transported to the TetraQ-ADME laboratories on dry ice and all were in an intact (frozen) condition upon arrival. The concentration of raloxifene in the plasma samples was determined by an LC-MS/MS assay developed and validated by TetraQ-ADME,
Pharmacokinetic analysis was performed using purpose-written macros for Excel Software. Standard model-independent pharmacokinetic methods were used. Nominal sampling times were used in the calculations. The plasma raloxifene concentrations were used to determine the following parameters: • (i) Cmax Maximum plasma concentration, read directly from the raw data. • (ii) Tmax Time at which Cmax was achieved, also read directly from the raw data. • (iii) ke Terminal elimination rate constant, which was determined as the slope of the regression line of best fit to the approximately log-linear terminal elimination phase (using the least squares linear regression function in the Excel 2003 software). […]

[4] = BET surface area; format: physicochemical; details: for BET surface area: raloxifene forms, milled with NaCl and washed (commercial: as obtained)
[5] = Stability of drug on dry milling; format: physicochemical; details: dry milled with NaCl for 180 minutes; attributed to degradation of the drug
Procedure: [drawing 3] was placed in a milling apparatus (a 70 cm^3 stainless steel ball mill container) with grinding compound in the form of 3.68 g of NaCl, thereby providing the mixture at 9.6 and 90.4 weight % respectively, corresponding to 15 and 85 volume %, with a total volume of 2 cm^3. Milling media comprising 40 g of 10 mm steel balls (10 pieces) were employed in the container. The milling apparatus was closed under house vacuum prior to milling. […] The mixture was dry milled for 15 minutes and 180 minutes, the composition resulting after milling for both times comprised olanzapine in nanoparticulate form dispersed in the grinding medium NaCl.
Milling times assayed included 15 and 180 minutes in two separate milling runs. Analysis of the melting point of the nanoparticles produced at 180 minute milling time period confirmed that the resulting composition was olanzapine, with a melting point in the range of 200° C.

[6] = Particle size distribution (dynamic light scattering); format: physicochemical; details: washed dispersion, larger aggregates removed by centrifugation
Text: In a preferred form of the invention, about 90% of the particles have a particle size of less than about 500 nm. The particles distribution can be measured with dynamic light scattering of a dispersion of the particles with the aid of sonication, and after centrifugation at 500 rcf for 30 seconds to remove larger agglomerates from the dispersion. Other means to measure the particles size are for examples surface area measurements, and electron micrographs, which can be used to support the measured size distribution of the particles.
The size determined by SEM is in good agreement with the size distribution of the dispersion before drying by dynamic light scatter (DLS) (FIG. 10). Here the particles size was determined with a Malvern HPPS dynamic light scattering apparatus with a size distribution after number of 128±53 nm (number weighted) in intensity a second peak of 300 nm was detected. Prior to the measurement any larger aggregates or agglomerates were removed by 1 min centrifugation at 6000 g, and only the supernatant was analyzed.

[7] = Particle size from SEM/TEM images; format: physicochemical; details: for particle size (SEM/TEM): milled with NaCl, grinding compound removed by washing
[8] = 15 vol % sample in NaCl, washed, stabilized with CTAB

- solution concentration detected (dissolution) [1]: ~8 mg/L
- solution concentration detected (dissolution) [2]: ~0.75 mg/L
- area under the concentration vs. time curve (AUC0-t) ([3]; mean±SD): 21.36 ± 16.79 ng·h/mL
- Cmax ([3]; both sexes, dog, plasma, mean±SD, read-out: maximum plasma concentration (Cmax)): 7.69 ± 4.54 ng/mL
- Tmax ([3]; both sexes, dog, plasma, read-out: median time to maximum concentration (Tmax)): 1.5 h
- BET surface area ([4]; listed as commercial raloxifene HCl, hydrochloride): 0.1 m^2/g
SMILES: O=C(c1ccc(OCCN2CCCCC2)cc1)c1c(-c2ccc(O)cc2)sc2cc(O)ccc12 [commercial raloxifene hydrochloride, raloxifene hydrochloride]

SMILES: Cc1cc2c(s1)Nc1ccccc1N=C2N1CCN(C)CC1 [olanzapine]
- appearance after milling (degradation) [5]: some decolourization

- particle size by DLS (number weighted) [6]: 160±30 nm
- nanoparticle size [7, 8]: less than 200 nm
- size of the majority of nanoparticles [7, 8]: 30-50 nm
- nanoparticle diameter (TEM) ([7]; milled with NH4Cl, washed with 0.01 M HCl and 1 mM CTAB): about 200 nm
- particle size (SEM/TEM) [7]: 100-200 nm
SMILES: O=C(O)Cc1ccccc1Nc1c(Cl)cccc1Cl [DCA, diclofenac acid]

- particle diameter calculated from BET surface area ([4]; density of 1.2 g/cm^3): 85 nm
- particle diameter calculated from BET surface area ([4]; density of 1.3 g/cm^3, assuming monodispersed nanoparticles): about 80 nm
- particle diameter calculated from BET surface area ([4]; density of 1.4 g/cm^3): 70 nm
- BET surface area [4]: 57.7178±0.4095 m^2/g
- particle size (SEM/TEM) [7]: under 100 nm
SMILES: O=C(c1ccc(OCCN2CCCCC2)cc1)c1c(-c2ccc(O)cc2)sc2cc(O)ccc12 [Raloxifene Free Base]

- BET surface area ([4]; hydrochloride): 10.6 m^2/g
- particle size (SEM/TEM) ([7]; hydrochloride): 100-200 nm
SMILES: O=C(c1ccc(OCCN2CCCCC2)cc1)c1c(-c2ccc(O)cc2)sc2cc(O)ccc12 [Raloxifene HCl (Amorphous), raloxifene hydrochloride]
